The subject of series [1] is MCF-7 breast cancer cells. Kind of series: SRB cytotoxicity assay, MCF-7. The format is cell-based. The note with it: Homo sapiens, MCF7; SRB assay, 96 h incubation, mean ± SD; read-out: IC50 MCF-7. On the procedure:
(§1) All of the compounds were dissolved in dimethyl sulfoxide (DMSO) to achieve a 20 mM stock solution. Cells were seeded in cell culture flasks 24 h before treatment. The treatment was performed for 24 h.
(§2) The cytotoxicity of the drugs was determined in 2D tumor models using sulforhodamine B (SRB) assays. Treatment started 24 h after seeding the tumor cells in 96-well plates as previously described.
(In general: In SRB staining, fixed cells bind dye roughly in proportion to their protein.)

Series [2] has as its system A2780 ovarian cancer cells. Kind of series: SRB cytotoxicity assay, A2780. The settings on record: Homo sapiens, A2780; SRB assay, 96 h incubation, mean ± SD; read-out: IC50 A2780. It counts as cell-based. On the procedure:
as §1, §2

The target of series [3] is recombinant human carbonic anhydrase IX (Homo sapiens, UniProt Q16790). As to the kind of experiment: hCA IX esterase assay with p-nitrophenyl acetate.
Protocol: In this measurement, the enzymatically catalyzed hydrolysis of p-nitrophenyl acetate to p-nitrophenol was investigated. […] This was followed by measurement of the v-S-characteristics with inhibitor. […] For each run, 2 experimental series (biological replicate) were prepared simultaneously and measured for 10 min at a measurement interval of 8 s, also as a two-fold determination (technical replicate). […] The resulting reaction velocities, calculated from a calibration curve with p-nitrophenole under the same conditions, were plotted against the substrate concentration. The kinetic evaluation for competitive inhibition was then performed with the program GraphPad Prism.
The target in a further series is hypoxia-induced hCA IX (Homo sapiens, UniProt Q16790). As to the kind of experiment: Cell-based hCA IX inhibition, Wilbur-Anderson method, hypoxic Hs578T cells. The settings on record: 20 µM, 3 h, vs untreated hypoxic cells.
In another series the test system is A375 melanoma cells. Kind of series: SRB cytotoxicity assay, A375. It counts as cell-based. The settings on record: Homo sapiens, A-375; SRB assay, 96 h incubation, mean ± SD; read-out: IC50 A375. On the procedure: as §1, §2
For series [4], the system named is Hs578T spheroids. Kind of series: Spheroid cytotoxicity assay (luciferase), Hs578T. It counts as cell-based, human. The settings on record: Homo sapiens, Hs-578T, 168 h; 7 days of treatment, 3 independent experiments; read-out: IC50 Hs578T spheroids. On the procedure:
(§3) To determine cytotoxicity in the 3D tumor models, spheroid cytotoxicity assays were performed as previously described. […] For generation of single tumor spheroids, tumor cells resuspended in culture medium were seeded into 96-well plates, which were coated before with 0.7% agarose (SeaKem® GTG™ Agarose, Lonza, Basel, Switzerland). After the formation of spheroids (48 h), they were treated with serial dilutions of compounds. Measurements of luciferase activity were performed on day 7, after supplementation with D-luciferin (Perkin Elmer, Rodgau, Germany), on a Tecan Spark microplate reader (Tecan, Männedorf, Switzerland). Generation of dose-response curves and calculation of IC50 values including standard deviations were accomplished using GraphPad Prism8.
(§4) Since the tumor cells stably express luciferase, analysis of spheroid growth and response to therapy is accomplished by measurement of bioluminescent signal intensity.

The next series relates to MDA-MB-231 spheroids. As to the kind of experiment: Spheroid cytotoxicity assay (luciferase), MDA-MB-231. The settings on record: Homo sapiens, MDA-MB-231, 168 h; 7 days of treatment, 3 independent experiments; read-out: IC50 MDA-MB-231 spheroids. It counts as cell-based, human. How it is done:
as §3, §4

For series [5], the system named is Hs578T spheroids. On the set-up: method as in PMID 36780832. The settings on record: Hs578T versus MDA-MB-231 spheroids; cited from earlier work.

Protocol for hypoxia-induced hCA IX: In a cell-based system, the changes of extracellular pH due to activity of hypoxia-induced hCA IX were determined. Hydration of CO2 to hydrogen carbonate and a proton catalyzed by extracellular hCA IX are the basis for detecting changes in pH depending on activity of hCA IX. Breast cancer cells (Hs578T) were cultured under hypoxic conditions for induction of hCA IX expression and afterwards treated with 20 µM of each substance for 3 h. Normoxic and hypoxic cells without treatment were used as reference. Cells were washed, scraped down, and resuspended in ice-cold isotonic buffer.

For orientation: IC50 means the concentration that gives 50% inhibition. `C=C(C)[C@@H]1CC[C@]2(C(=O)O)CC[C@]3(C)[C@H](CC[C@@H]4[C@@]5(C)CC[C@H](O)C(C)(C)[C@@H]5CC[C@]43C)[C@@H]12` [BA, betulinic acid]: the IC50 in series [1] was determined as 13 ± 1 µM; in series [2], 12.5 ± 1.8 µM; with A375 melanoma cells it was 13.1 ± 0.9 µM. Also, in [3] (p-nitrophenyl acetate substrate, competitive inhibition, pH 7.5, 20 °C), the “Ki Values of hCA IX” value is “n.i”. The “inhibition of hypoxia-induced hCA IX activity (relative WAU)” value on hypoxia-induced hCA IX is “no potential to inhibit hCA IX activity”.

Usually melting point stands for the temperature of the solid-liquid transition. Turning to `C=C(C)C1CCC2(C(=O)NCCOCCO)CCC3(C)C(CCC4C5(C)CCC(OC(C)=O)C(C)(C)C5CCC43C)C12` (centres unmarked) [Compound 10], the melting point stood at 205 °C. In series [1], the half-maximal inhibitory concentration (IC50) amounted to 5.9 ± 0.2 µM. In addition, the IC50 in [2] worked out at 9.5 ± 0.9 µM. Moreover, in the series on A375 melanoma cells, the IC50 worked out at 4.3 ± 0.2 µM.

With `C=C(C)C1CCC2(C(=O)NCCOCCOC(=O)CCC(=O)O)CCC3(C)C(CCC4C5(C)CCC(OC(C)=O)C(C)(C)C5CCC43C)C12` (centres unmarked) [Compound 11], the melting point lay in the range of 78 to 82 °C. For the same molecule, the IC50 in series [1] is 7.3 ± 0.4 µM. Moreover, the half-maximal inhibitory concentration (IC50) in [2] is 12.3 ± 1.5 µM. The half-maximal inhibitory concentration (IC50) with A375 melanoma cells was 10.5 ± 0.6 µM.

Molecule `C=C(C)C1CCC2(C(=O)NCCOCCOC(=O)CCC(=O)Nc3nnc(S(N)(=O)=O)s3)CCC3(C)C(CCC4C5(C)CCC(OC(C)=O)C(C)(C)C5CCC43C)C12` (centres unmarked) [Compound 12] showed a melting point of 92 to 94 °C. Further, the IC50 with Hs578T spheroids [4] was above 100 µM. For the same molecule, the concentration for half-maximal inhibition (IC50) in series [1] is above 100 µM. In addition, the IC50 in series [2] turned out to be 35.1 ± 3.4 µM. Further, the IC50 in the series on MDA-MB-231 spheroids was above 100 µM. For the same molecule, the “reduction of hCA IX activity” value in series [3] (10 µM of the compound, p-nitrophenyl acetate) is recorded as 40%. Further, in series [3] (read-out: residual activity (r.a.) of hCA IX), the remaining activity at 10 µM was found to be 60%. Moreover, the IC50 in the series on A375 melanoma cells was above 100 µM.

As to `COc1cccc2c1C(=O)c1c(O)c3c(c(O)c1C2=O)C[C@@](O)(C(=O)CO)C[C@@H]3O[C@H]1C[C@H](N)[C@H](O)[C@H](C)O1` [doxorubicin], the “resistance of Hs578T spheroids” value in the series on Hs578T spheroids [5] is listed as 60 fold.

Take `CC(=O)O[C@H]1C(=O)[C@@]2(C)[C@H]([C@H](OC(=O)c3ccccc3)[C@]3(O)C[C@H](OC(=O)[C@H](O)[C@@H](NC(=O)c4ccccc4)c4ccccc4)C(C)=C1C3(C)C)[C@]1(OC(C)=O)CO[C@@H]1C[C@@H]2O` [paclitaxel]: the “resistance of Hs578T spheroids” value with Hs578T spheroids [5] is 20 fold.

The values are drawn from PMC10974084, “Combination of Betulinic Acid Fragments and Carbonic Anhydrase Inhibitors—A New Drug Targeting Approach” (Pharmaceutics, 2024).
